Laboratory results reported in patent publication US20250027127A1, “C[…] BACTERIA” (priority 2021, published 2025).

Experiments:
[1] = room temperature
Clz9 = assay: In vitro assays with Clz9 wild type and variants; assay type: biochemical, Streptomyces sp. CNH-287; conditions: 12 hours, 37° C., pH 7.5
Procedure: (§1) The in vitro assays were performed following a modified procedure that was previously reported.^1 Assays (0.1 mL) contained 100 mM potassium phosphate buffer pH 7.5, 0.1 mg/mL^−1 catalase, 10 μL DMSO, 1 μL of a 20 mM stock solution of substrate and were initiated by addition of 20 μM wild type Clz9 or Tcz9 or their respective variants, unless otherwise altered to investigate the thermal and solvent effects on enzyme activity or product stability during time course experiments. Assays were allowed to incubate for 12 hat 37° C. before quenching with 150 μL acetonitrile. Assays were then centrifuged at 14000×g for 30 minutes and passed through a […] filter before injecting 50 μL of the solution for LC-MS analysis at a flow rate of 0.75 mL/min with a mobile phase combination of water+0.1% formic acid (A) and acetonitrile+0.1% formic acid (B) using a gradient as follows: 50% (B), 0 to 2 minutes; 50 to 100% (B), 2 to 10 min; 100% (B), 10 to 17 min; 100% to 50% (B), 17 to 18 min; 50% (B), 18 to 20 minutes.

Tcz9 = assay: In vitro assays with Tcz9 wild type and variants; assay type: biochemical, Actinomycete sp. AJS-327; conditions: 12 hours, 37° C., pH 7.5
Procedure: as §1

Tcz9 T405Y = assay type: cell-based, Actinomycete sp. AJS-327; conditions: I mM substrate, IL culture, 48 hours
[2] = tested on: daurichromenic acid (DCA) synthase; conditions: cited from earlier work

| Compound | stability in aqueous solutions [1] | activity with the Clz9 enzymes (wild type and three variants) (Clz9) | activity with the Tcz9 enzymes (wild type and three variants) (Tcz9) | activity with Tcz9 T124F (Tcz9) | further results |
| --- | --- | --- | --- | --- | --- |
| O=C1C=C2C(=C(O)/C1=c1/ccc3cc(Cl)c(Cl)n13)C(=O)n1c2cc(Cl)c1Cl [compound 7] | unexpectedly stable |  |  |  |  |
| CC(C)=CCC/C(C)=C/Cc1c(O)cc(C)c(C(=O)O)c1O [compound 12c, cannabigerorcinic acid] |  | slightly different activity profile than 12b and 12a | slightly different activity profile than 12b and 12a |  |  |
| CC(C)=CCC/C(C)=C/CC/C(C)=C/Cc1c(O)cc(C)c(C(=O)O)c1O [compound 19, grifolic acid] |  | no activity | three of the four Tcz9 enzymes fully consumed | completely abolished activity |  |
| CCCCCc1cc(O)c(C/C=C(\C)CCC=C(C)C)c(O)c1C(=O)O [compound 12a, cannabigerolic acid] |  |  |  | abolished activity | activity with wild type Clz9 (Clz9; 5 mol %): showed activity; activity with Clz9 F156T (Clz9): nearly consumed all; activity with Clz9 T438Y (Clz9): increased conversion; activity with wild type Tcz9 (Tcz9; 5 mol %): showed activity; activity with Tcz9 E368N (Tcz9): consumed all; activity with Tcz9 T405Y (Tcz9): increased conversion; conversion of substrate to products 15a and 17a (Tcz9 T405Y): approximately 80%; activity with DCA synthase [2]: no activity |
| O=C1C=C2C(=C(O)/C1=c1\ccc3cc(Cl)c(Cl)n13)C(=O)n1c2cc(Cl)c1Cl [compound 6] | unexpectedly stable |  |  |  |  |
